Results on 27 compounds are retold here after PubChem BioAssay (NCI).

Holding throughout (assay): NCI-60 cell line screen, 48 h
For experiment [1], the system named is SK-MEL-2 melanoma.
Experiment [2] concerns SNB-19 CNS.
In experiment [3] the test system is ACHN renal.
Experiment [4] has as its system KM12 colon.
In experiment [5] the test system is LOX IMVI melanoma.
The test system of experiment [6] is M14 melanoma.
The test system of experiment [7] is OVCAR-8 ovarian.
Experiment [8] deals with UO-31 renal.
For experiment [9], the system named is UACC-257 melanoma.

Values joined by “and” are separate entries in the source; they are usually repeats but may differ in a detail not shown here. Identical values can stand only once.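 Step 1: Grow cells in 96-well plates. Step 2: Expose to compound for 48 hours at 5 concentrations. Step 3: Interpolate endpoints linearly; if unreached, use highest concentration. GI50: concentration for 50% inhibition of growth. TGI denotes the concentration required for complete inhibition of growth.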

On to `O=S1Nc2c(Cl)cc(Cl)c3c(Cl)cc(Cl)c(c23)N1`, for which the TGI is greater than 100 µM in [1]; greater than 100 µM in experiment [2]; 73.8 µM in experiment [3]; greater than 100 µM in [4]; greater than 100 µM in experiment [5]; greater than 100 µM in experiment [6]. Further, the TGI in [7], in experiment [8] and in [9] was greater than 100 µM each time.

As for `O=C1C(Cl)C(c2ccccc2O)N1n1cnc2ccccc2c1=O` (stereo unspecified), the TGI in [1], in experiment [2], in experiment [3], in experiment [4], in [5] and in experiment [6] was greater than 100 µM throughout. Besides, the TGI in experiment [7], in experiment [8] and in [9] was greater than 100 µM each time.

For `CC1=NN(C(=O)c2ccc([N+](=O)[O-])cc2)C(=O)C1N=Nc1ccccc1C(=O)O` (stereo unspecified), the TGI in experiment [1], in experiment [2], in experiment [3], in experiment [4], in experiment [7] and in [8] was greater than 100 µM throughout. Also, in [9], the TGI is greater than 100 µM.

As for `O=c1c2cccc3cccc(c4n1CCN=4)c32`, the TGI in experiment [1] was greater than 100 µM; in [3], greater than 100 µM; in experiment [4], greater than 100 µM; in experiment [5] it was 80.5 µM; in [6], greater than 100 µM; in experiment [7] it was greater than 100 µM. Also, the TGI in [8] and in experiment [9] was greater than 100 µM throughout.

Regarding `CSc1n[n+]2c(s1)SCCC2`, the TGI in experiment [2], in experiment [3], in experiment [4], in experiment [5], in experiment [6] and in [7] was greater than 100 µM in each case. For the same compound, the TGI in experiment [8] and in [9] was greater than 100 µM throughout.

In the case of `O=c1[nH]c2cc(Cl)ccc2nc1/C(=N\O)C(O)c1ccc([N+](=O)[O-])cc1` (stereo unspecified), the TGI in [1], in experiment [2], in [3], in experiment [4], in experiment [5] and in experiment [6] was greater than 100 µM in each case. Besides, the TGI in experiment [7], in experiment [8] and in experiment [9] was greater than 100 µM each time.

As to `O=C(Nc1cccc(O)c1)C(=O)C(C(=O)c1ccc(Cl)c(Cl)c1)C1OC(=O)c2ccccc21` (stereo unspecified), the TGI was 63.9 µM in experiment [1]; 37.8 µM in experiment [2]; 29.7 µM in [3]; 41.4 µM in experiment [4]; 33.8 µM in [5]; 37.1 µM in experiment [6]. Moreover, the TGI in [7] came to 37.8 µM; in experiment [8], 27.1 µM; in [9], 55.6 µM.

Take `Cc1c(C(=O)/C=C/c2ccccc2O)c(=O)n(-c2ccccc2)n1C`: the TGI is 38.4 µM in [1]; greater than 100 µM in [2]; 45.2 µM in experiment [3]; 45.9 µM in experiment [5]; 40.7 µM in [7]; 89.7 µM in [9].

As for `COC(=O)C(Cc1nc2ccccc2[nH]c1=O)C(=O)C(=O)Nc1ccc([N+](=O)[O-])cc1[N+](=O)[O-]` (stereo unspecified), the TGI in [1] was 69 µM; in experiment [2], greater than 100 µM; in experiment [3], 33.3 µM; in [4], 30.1 µM; in experiment [5], 44.4 µM; in experiment [6] it was 32.4 µM. Further, the figures for the TGI in experiment [7], in experiment [8] and in [9] were 52.6 µM, 43.6 µM and 36.9 µM, respectively.

For `CC(C)(C)C1CCC2c3c([nH]c4ccccc34)C3C(=O)N(c4ccccc4)C(=O)C3C2C1` (stereo unspecified), the TGI in experiment [2] was 22.5 µM; in [3], 26.2 µM; in experiment [4], greater than 100 µM; in [5] it was 15.3 µM; in experiment [6], 19.7 µM; in experiment [7], 17.8 µM. This compound also registered a TGI in experiment [8] of 8.48 µM.

Consider `Cn1c(=O)c2nc(-c3ccc(Cl)cc3)oc2n(C)c1=O`, for which the TGI in experiment [1], in experiment [2], in experiment [3], in [4], in experiment [5] and in [6] was greater than 100 µM throughout. Moreover, the TGI in experiment [7], in experiment [8] and in [9] was greater than 100 µM in each case.

`CC(=O)[CH-]C(=O)c1ccccc1.CC(=O)[CH-]C(=O)c1ccccc1.CCOCC[O-].CCOCC[O-].[Ti+4]`: the GI50 is 14.2 µM in experiment [1]; 18.1 µM in [2]; 31.6 µM in experiment [3]; 27.1 µM in experiment [4]; 37.8 µM in experiment [5]; 16.7 µM in experiment [6]. In addition, the GI50 in experiment [7] is 19.6 µM; in experiment [8] it was 17.6 µM; in [9] it was 33.8 µM. Also, the TGI was 29.6 µM in experiment [1]; 38.6 µM in [2]; greater than 100 µM in [3]; 77.3 µM in experiment [4]; greater than 100 µM in [5]; 37.1 µM in [6]. For the same compound, the figures for the TGI in experiment [7], in [8] and in experiment [9] were 41.7 µM, 49.5 µM and greater than 100 µM, respectively.

With `CN(C)c1nc(=Nc2cccc(Cl)c2)ss1`, the TGI in experiment [1] was 42.1 µM; in experiment [2], greater than 100 µM; in experiment [3] it was 37.2 µM; in experiment [4] it was 43.7 µM; in experiment [5] it was 27.8 µM; in experiment [6] it was 28.4 µM. Moreover, the figures for the TGI in experiment [7], in [8] and in experiment [9] were 25.6 µM, 69.8 µM and 36 µM, respectively.

Regarding `CCOC(=O)C(C)(C)Oc1ccc(/C=C/C(=O)c2ccc(Cl)cc2)cc1`, the TGI in experiment [1] was 39 µM; in [2], 37.7 µM; in [5], 30.7 µM; in experiment [6], 34.7 µM; in experiment [7], 41.3 µM; in [8], greater than 100 µM. The compound further had a TGI in experiment [9] of 41.4 µM.

Turning to `CC/C(CC(=O)CCC(=O)Nc1ccccc1[N+](=O)[O-])=N/NC(=O)C[n+]1ccccc1`, the TGI in experiment [1], in experiment [2], in experiment [3], in experiment [4], in experiment [5] and in experiment [6] was greater than 100 µM each time. Also, the TGI in [7], in experiment [8] and in [9] was greater than 100 µM throughout.

Consider `CO[C@H](C(=O)[C@@H](O)[C@@H](C)O)[C@@H]1Cc2cc3cc(OC4CC(OC5CC(O)C(O)C(C)O5)C(O)C(C)O4)c(C)c(O)c3c(O)c2C(=O)[C@H]1OC1CC(OC2CC(OC3CC(C)(O)C(O)C(C)O3)C(O)C(C)O2)C(O)C(C)O1` (stereo partly specified), for which the GI50 was 0.0152 µg/mL and 0.0126 µg/mL in experiment [1]; 0.0238 µg/mL and 0.0179 µg/mL in [2]; 0.0197 µg/mL and 0.0207 µg/mL in experiment [4]; 0.0262 µg/mL in [5]; 0.0281 µg/mL and 0.0194 µg/mL in experiment [7]; 0.132 µg/mL and 0.225 µg/mL in [8]. For the same compound, the GI50 in experiment [9] is 0.0259 µg/mL and 0.0361 µg/mL.

With `CN1C(=O)C(=O)c2cc3c(c4c2c1cc1ccccc14)OCO3`, the TGI in experiment [1] is greater than 100 µM; in experiment [2] it was greater than 100 µM; in experiment [3], greater than 100 µM; in [4], 58.9 µM; in experiment [5] it was 97.2 µM; in [6], greater than 100 µM. Further, the TGI in experiment [7], in experiment [8] and in experiment [9] was greater than 100 µM throughout.

On to `Cc1cn2c(/C=N/N=C(N)N)c(-c3cccs3)nc2s1`, for which the GI50 was 28.8 µM in experiment [1]; 11.9 µM in experiment [2]; 2.12 µM in experiment [3]; 2.39 µM in experiment [4]; 1.63 µM in experiment [6]; 13.2 µM in experiment [7]. Besides, the results for the GI50 in experiment [8] and in experiment [9] were 16.6 µM and 2.54 µM, respectively. In addition, the TGI is greater than 100 µM in experiment [1]; 35.8 µM in experiment [2]; 5 µM in experiment [3]; 8.3 µM in experiment [4]; 3.01 µM in experiment [6]; 36 µM in experiment [7]. Further, the TGI was 38.9 µM in experiment [8] and 6.14 µM in experiment [9].

As for `COC1=CC(=O)C2C(C1=O)C(c1ccccc1)[C@H]2C` (stereo partly specified), the TGI was greater than 100 µM in experiment [1]; greater than 100 µM in experiment [2]; 68.5 µM in [3]; greater than 100 µM in experiment [4]; greater than 100 µM in experiment [5]; greater than 100 µM in experiment [6]. Further, the TGI in experiment [7] and in experiment [8] was greater than 100 µM throughout.

Take `C/C=C/CC(C)[C@@H](O)[C@H](NC)C(=O)O` (stereo partly specified): the TGI in experiment [1], in experiment [2], in [3], in experiment [4], in experiment [5] and in experiment [6] was greater than 100 µM in each case. Further, the TGI in experiment [7], in experiment [8] and in experiment [9] was greater than 100 µM each time.

`CCOc1cccc2ccc[n+](CC)c12`: the TGI in experiment [2], in experiment [3], in [4], in experiment [5], in experiment [6] and in experiment [7] was greater than 100 µM in each case. The TGI in experiment [8] and in experiment [9] was greater than 100 µM throughout.

Regarding `O=[N+]([O-])C1Cc2ccccc2OC1c1ccccc1` (stereo unspecified), the TGI in experiment [2] was greater than 100 µM; in experiment [3], greater than 100 µM; in [4], greater than 100 µM; in [5], 31.9 µM; in experiment [6] it was greater than 100 µM; in experiment [7] it was greater than 100 µM. The TGI in experiment [8] and in [9] was greater than 100 µM each time.

In the case of `COc1cc(CNC2c3cc4c(cc3C(c3cc(OC)c(OC)c(OC)c3)[C@H]3C(=O)OCC23)OCO4)cc(OC)c1OC` (stereo partly specified), the TGI was greater than 100 µM in experiment [1]; greater than 100 µM in experiment [2]; greater than 100 µM in experiment [3]; 0.692 µM in [4]; greater than 100 µM in experiment [5]; greater than 100 µM in experiment [6]. Moreover, the TGI in experiment [8] and in [9] was greater than 100 µM throughout.

With `Cc1cc(C)c(Cn2cnc3c(Cl)ncnc32)c(C)c1CCl`, the GI50 is greater than 100 µM in experiment [1]; greater than 100 µM in [2]; 0.233 µM in experiment [3]; 31.1 µM in [4]; 0.652 µM in experiment [5]; 99.4 µM in experiment [6]. Besides, the GI50 in [7] and in experiment [8] was greater than 100 µM in each case. Besides, the TGI in [1] is greater than 100 µM; in [2], greater than 100 µM; in [3], 14.1 µM; in experiment [4] it was greater than 100 µM; in experiment [5], 8.69 µM; in experiment [6], greater than 100 µM. In addition, the TGI in [7] and in experiment [8] was greater than 100 µM throughout.

Turning to `Cc1c(C(=O)/C=C/c2ccc(N(C)C)cc2)c(=O)n(-c2ccccc2)n1C`, the TGI in experiment [1], in experiment [2], in experiment [3], in experiment [4], in [5] and in [7] was greater than 100 µM in each case. Also, the TGI in experiment [8] and in [9] was greater than 100 µM in each case.

On to `COC(=O)C1[C@H](c2cc(OC)c(OC)c(OC)c2)OC(=O)C1(C(=O)OC)C(=O)c1ccc2c(c1)OCO2` (stereo partly specified), for which the TGI in experiment [2], in experiment [3], in [4], in experiment [5], in [6] and in experiment [7] was greater than 100 µM in each case. For the same compound, the TGI in experiment [8] and in [9] was greater than 100 µM throughout.

For the compound `Cc1cc(=O)oc2c(C)c(OCCCOc3ccc4c(C)cc(=O)oc4c3C)ccc12`, the TGI in [1], in experiment [2], in experiment [4], in [5], in experiment [6] and in experiment [7] was greater than 100 µM in each case. Further, the TGI in [8] and in experiment [9] was greater than 100 µM in each case.
